Source: US20260042763A1, “PE[…] POSITIVE […] THE TREATMENT OF IRRITABLE BOWEL SYNDROME AND OTHER AILMENTS OF THE PERIPHERAL NERVOUS SYSTEM” (The Johns Hopkins University, priority 2022, published 2026)
Like-named read-outs stand apart in the source and are kept apart here.

Biological target: T1, human isoforms of GABAA (α3ß2γ2) receptors (Homo sapiens, UniProt P18507+P34903)
T1 construct: expressed in transfected cells
Assay: Potentiation of GABA-evoked currents at GABAA (α3β2γ2) receptors, automated patch-clamp (QPatch), Example B1
Format: cell-based
Conditions: for Emax: Emax of potentiation, read-out: Max %
Description: The ability of compounds exemplified above to potentiate the effect of GABA on GABAA receptors (α3β2γ2) was determined using one or more of the methods described below.
Ltk cells stably expressing the human isoforms of GABAA (α3ß2γ2) receptors were used together with submaximal GABA concentrations to investigate the modulatory effects of the test items. Cells were incubated at 37° C. in a humidified atmosphere with 5% CO2 (rel. humidity about 95%). The cells were continuously maintained in and passaged in sterile culture flasks containing a 1:1 mixture of Dulbecco's modified eagle medium and nutrient mixture D-MEM/F-12 (1×, liquid, with L-Glutamine), supplemented with 10% fetal bovine serum and 1.0% Penicillin/Streptomycin solution. The complete medium as indicated above was supplemented with neomycin. In general, cells were passaged at a confluence of about 80 to 90%. For electrophysiological measurements cells were harvested at a confluence of about 80 to 90% from sterile culture flasks containing culture complete medium. Cells were transferred as suspension in PBS to the QPatch 16X or QPatch HTX system to the centrifuge/washer directly. Expression of GABA receptor was induced by adding Dexamethasone to the cells for 24 to 48 h before experimentation.
Modulatory effects of the compounds of this disclosure were investigated using cells stably transfected with GABA-activated channels of the GABAA (α3ß2γ2) subtype together with submaximal GABA concentrations. Expression of GABA receptor were induced by adding Dexamethasone to the cells for 24 to 48 h before experimentation. In general, cells were passaged at a confluence of about 80 to 90%. For electrophysiological measurements cells were harvested at a confluence of about 80 to 90% from sterile culture flasks containing culture complete medium. Cells were transferred as suspension in PBS to the QPatch 16X or QPatch HTX system to the centrifuge/washer directly. Cells were incubated at 37° C. in a humidified atmosphere with 5% CO2 (rel. humidity about 95%). The cells were continuously maintained in and passaged in sterile culture flasks containing a 1:1 mixture of Dulbecco's modified eagle medium and nutrient mixture D-MEM/F-12 (1×, liquid, with L-Glutamine), supplemented with 10% foetal bovine serum and 1.0% Penicillin/Streptomycin solution and neomycin. The 1× bath solution was made at least every 5 days out of a sterile 10× bath solution, which had been prepared prior to the experimental start of the present study and stored at 1° C. to 9° C. The final bath solution included Sodium Chloride 137 mM, Potassium Chloride 4 mM, Calcium Chloride 1.8 mM, Magnesium Chloride 1 mM, HEPES 10 mM, D-Glucose 10 mM, pH (NaOH) 7.4. The 1× intracellular solution was thawed every day and includes Potassium Chloride 130 mM, Magnesium Chloride 1 mM, Mg-ATP 5 mM, HEPES 10 mM, EGTA 5 Mm, pH (KOH) 7.2. Automated patch-clamping: Cells were transferred as suspension in serum-free medium to the QPatch HTX system and kept in the cell storage tank during experiments. All solutions applied to cells including the intracellular solution were maintained at room temperature (19° C. to 30° C.). After formation of a Gigaohm seal between the patch electrodes and transfected individual Ltk cells were ruptured to assure electrical access to the cell interior (whole-cell patch-configuration). Inward currents were measured upon application of 2.0 μM GABA to patch-clamped cells for 4 s. During the entire experiment the cells were voltage-clamped at a holding potential of −80 mV. For the analysis of test items, GABAA receptors were stimulated by 2.0 μM GABA and test item combinations described below. Thirty-second prewash steps with test items was performed in between two agonist applications. […]

[1] = Ltk cells expressing GABAA α3β2γ2, 2.0 μM GABA, whole-cell, holding potential −80 mV

T1 sequence (P34903 29-492): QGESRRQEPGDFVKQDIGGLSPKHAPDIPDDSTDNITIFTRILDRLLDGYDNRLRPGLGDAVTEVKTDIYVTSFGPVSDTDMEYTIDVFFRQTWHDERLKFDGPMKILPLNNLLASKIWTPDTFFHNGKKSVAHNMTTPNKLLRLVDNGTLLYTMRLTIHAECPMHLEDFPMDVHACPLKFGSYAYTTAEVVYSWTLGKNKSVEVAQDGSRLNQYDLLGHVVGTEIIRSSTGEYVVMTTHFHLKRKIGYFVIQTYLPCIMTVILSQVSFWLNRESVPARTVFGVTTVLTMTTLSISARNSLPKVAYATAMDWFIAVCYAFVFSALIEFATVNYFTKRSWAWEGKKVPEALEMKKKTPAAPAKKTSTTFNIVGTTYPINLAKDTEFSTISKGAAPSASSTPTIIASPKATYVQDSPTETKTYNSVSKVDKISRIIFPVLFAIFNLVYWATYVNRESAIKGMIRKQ
T1 sequence (P47870 25-512 partner limits assumed): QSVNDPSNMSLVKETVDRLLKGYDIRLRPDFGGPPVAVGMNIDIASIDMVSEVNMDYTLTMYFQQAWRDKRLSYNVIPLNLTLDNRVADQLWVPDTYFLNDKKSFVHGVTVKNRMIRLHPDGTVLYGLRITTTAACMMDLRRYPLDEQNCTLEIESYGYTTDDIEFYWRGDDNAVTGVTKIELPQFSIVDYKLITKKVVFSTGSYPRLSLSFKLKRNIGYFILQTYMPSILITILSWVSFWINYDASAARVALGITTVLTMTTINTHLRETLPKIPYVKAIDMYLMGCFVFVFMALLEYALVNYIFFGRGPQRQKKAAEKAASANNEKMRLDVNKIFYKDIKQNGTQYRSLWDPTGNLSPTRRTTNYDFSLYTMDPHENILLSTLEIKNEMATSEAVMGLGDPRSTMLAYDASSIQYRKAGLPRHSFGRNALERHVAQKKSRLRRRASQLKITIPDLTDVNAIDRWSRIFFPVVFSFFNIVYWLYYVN
T1 sequence (P18507 40-475): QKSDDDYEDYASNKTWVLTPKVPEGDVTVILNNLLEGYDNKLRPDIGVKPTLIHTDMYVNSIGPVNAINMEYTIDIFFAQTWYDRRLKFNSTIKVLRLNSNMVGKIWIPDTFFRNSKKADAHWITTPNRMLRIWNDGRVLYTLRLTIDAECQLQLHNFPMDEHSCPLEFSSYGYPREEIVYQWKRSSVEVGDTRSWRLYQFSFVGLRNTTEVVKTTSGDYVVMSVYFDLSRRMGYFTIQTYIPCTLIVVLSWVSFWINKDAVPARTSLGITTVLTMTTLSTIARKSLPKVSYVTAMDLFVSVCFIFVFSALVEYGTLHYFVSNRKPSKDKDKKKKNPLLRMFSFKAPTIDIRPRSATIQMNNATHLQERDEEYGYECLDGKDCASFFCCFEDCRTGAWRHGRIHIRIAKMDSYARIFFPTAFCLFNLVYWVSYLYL

SMILES | EC50 | Emax [1] | EC50 (Ltk cells expressing GABAA α3β2γ2, 2.0 μM GABA, whole-cell, holding potential −80 mV, read-out: EC50)
O=C(O)c1cn2c(n1)CN=C(c1ccccc1F)c1cccc(Cl)c1-2 [Compound 224] | > 100 nM | < 50% | –
O=C(O)c1nc2n(c1-c1ccccc1)-c1ccc(Cl)cc1C(c1ccccc1F)=NC2 [Compound 239, 8-chloro-6-(2-fluorophenyl)-1-phenyl-4H-imidazo[1,2-a][1,4]benzodiaze pine-2-carboxylic acid] | > 100 nM | > 100% | –
O=C(O)c1cn2c(n1)CN=C(c1ccccc1F)c1cc(Cl)cc(F)c1-2 [Compound 203, 12-Chloro-14-fluoro-9-(2-fluorophenyl)-2,5,8-triazatricyclo[8.4.0.0^2,6] tetradeca-1 (10),3,5,8,11,13-hexaene-4-carboxylic acid] | 50 to 100 nM | 50 to 100% | –
O=C(O)c1nc2n(c1CNC1CCCCC1)-c1ccc(Cl)cc1C(c1ccccc1F)=NC2 [Compound 244, 8-chloro-1-((cyclohexylamino)methyl)-6-(2-fluorophenyl)-4H-benzo[f]imidazo[1,2-a][1,4]diazepine-2-carboxylic acid] | > 100 nM | > 100% | –
CCc1c(C(=O)O)nc2n1-c1ccc(Cl)cc1C(c1ccccc1F)=NC2 [Compound 217, 8-chloro-1-ethyl-6-(2-fluorophenyl)-4H-imidazo[1,2-a][1,4]benzodiazepine-2-carboxylic acid] | < 50 nM | > 100% | –
O=C(O)c1cn2c(n1)CN=C(c1ccccc1Cl)c1cc(Cl)ccc1-2 [Compound 220, 8-chloro-6-(2-chlorophenyl)-4H-imidazo[1,2-a][1,4]benzodiazepine-2-carboxylic acid] | < 50 nM | > 100% | –
COCCOCCOCCOCCOCCOCCOCCOCCNC(=O)c1cn2c(n1)CN=C(c1ccccc1F)c1cc(Cl)ccc1-2 [Compound 229, 8-chloro-6-(2-fluorophenyl)-N-[2-[2-[2-[2-[2-[2-[2-(2-methoxyethoxy)ethoxy]ethoxy]ethoxy]ethoxy]ethoxy]ethoxy]ethyl]-4H-imidazo[1,2-a][1,4]benzodiazepine-2-carboxamide] | > 100 nM | > 100% | –
COc1cc2c(cc1Cl)C(c1ccccc1F)=NCc1nc(C(=O)O)cn1-2 [Compound 205, 8-chloro-6-(2-fluorophenyl)-9-methoxy-4H-imidazo[1,2-a][1,4]benzodiazepine-2-carboxylic acid] | < 50 nM | > 100% | –
O=C(O)c1cn2c(n1)CN=C(c1cccc(F)c1)c1cc(Cl)ccc1-2 [Compound 218, 8-chloro-6-(3-fluorophenyl)-4H-imidazo[1,2-a][1,4]benzodiazepine-2-carboxylic acid] | > 100 nM | > 100% | –
Cc1ccc2c(c1)C(c1ccccc1F)=NCc1nc(C(=O)O)cn1-2 [Compound 226, 6-(2-fluorophenyl)-8-methyl-4H-imidazo[1,2-a][1,4]benzodiazepine-2-carboxylic acid] | < 50 nM | > 100% | –
O=C(O[C@@H]1O[C@H](C(=O)O)[C@@H](O)[C@H](O)[C@H]1O)c1cn2c(n1)CN=C(c1ccccc1F)c1cc(Cl)ccc1-2 [Compound 234, (2S,3S,4S,5R,6S)-6-((8-chloro-6-(2-fluorophenyl)-4H-benzo[f]imidazo[1,2-a][1,4]diazepine-2-carbonyl)oxy)-3,4,5-trihydroxytetrahydro-2H-pyran-2-carboxylic acid] | – | 50 to 100% | < 50 nM
O=C(O)Cc1cn2c(n1)CN=C(c1ccccc1F)c1cc(Cl)ccc1-2 [Compound 233, 2-(8-chloro-6-(2-fluorophenyl)-4H-benzo[f]imidazo[1,2-a][1,4]diazepin-2-yl) acetic acid] | < 50 nM | > 100% | –
CS(=N)(=O)CCNC(=O)c1cn2c(n1)CN=C(c1ccccc1F)c1cc(Cl)ccc1-2 (stereo not drawn) [Compound 208, 8-chloro-6-(2-fluorophenyl)-N-[2-(methylsulfonimidoyl)ethyl]-4H-imidazo[1,2-a][1,4]benzodiazepine-2-carboxamide] | < 50 nM | 50 to 100% | –
O=C(O)c1cn2c(n1)CN=C(c1ccccc1Cl)c1cc(F)ccc1-2 [Compound 223] | < 50 nM | < 50% | –
NC(=O)C(NCc1ccccc1)c1cn2c(n1)CN=C(c1ccccc1F)c1cc(Cl)ccc1-2 (stereo not drawn) [Compound 232, 2-(Benzylamino)-2-[12-chloro-9-(2-fluorophenyl)-2,5,8-triazatricyclo[8.4.0.0^2,6]tetradeca-1 (10),3,5,8,11,13-hexaen-4-yl]acetamide] | 50 to 100 nM | 50 to 100% | –
O=C(O)c1cn2c(n1)CN=C(c1ccc(F)cc1F)c1cc(Cl)ccc1-2 [Compound 216, 8-chloro-6-(2,4-difluorophenyl)-4H-imidazo[1,2-a][1,4]benzodiazepine-2-carboxylic acid] | – | < 50% | –
CP(C)(=O)CCCNC(=O)c1cn2c(n1)CN=C(c1ccccc1F)c1cc(Cl)ccc1-2 [Compound 209, 8-chloro-N-(3-dimethylphosphorylpropyl)-6-(2-fluorophenyl)-4H-imidazo[1,2-a][1,4]benzodiazepine-2-carboxamide] | < 50 nM | 50 to 100% | –
NC(=O)[C@H](O)c1cn2c(n1)CN=C(c1ccccc1F)c1cc(Cl)ccc1-2 [Compound 231, (2R)-2-[12-chloro-9-(2-fluorophenyl)-2,5,8-triazatricyclo[8.4.0.0^2,6]tetradeca-1 (10),3,5,8,11,13-hexaen-4-yl]-2-hydroxyacetamide] | < 50 nM | > 100% | –
COCCOCCOCCOCCNC(=O)c1cn2c(n1)CN=C(c1ccccc1F)c1cc(Cl)ccc1-2 [Compound 211, 8-chloro-6-(2-fluorophenyl)-N-[2-[2-[2-(2-methoxyethoxy)ethoxy]ethoxy]ethyl]-4H-imidazo[1,2-a][1,4]benzodiazepine-2-carboxamide] | 50 to 100 nM | > 100% | –
C[N+](C)(C)Cc1cn2c(n1)CN=C(c1ccccc1F)c1cc(Cl)ccc1-2 [Compound 202, {[12-chloro-9-(2-fluorophenyl)-2,5,8-triazatricyclo[8.4.0.0^2,6]tetradeca-1 (10),3,5,8,11,13-hexaen-4-yl]methyl}trimethylazanium chloride] | < 50 nM | 50 to 100% | –
